Measured values reported in patent US20250144056A1, “ANTIMICROBIAL HOST DEFENSE PEPTIDE-INDUCING COMPOSITIONS AND METHODS OF PRODUCTION AND USE THEREOF” (Board of Regents for the Oklahoma Agricultural and …, priority 2022, published 2025).

Tests used:
Format in all cases: cell-based, chicken
AvBD9 mRNA expression = assay: RT-qPCR of AvBD9 mRNA expression in HTC macrophage cells
Procedure: (§1) Culture and stimulation of macrophages. Two different chicken macrophage cell lines, HTC (24) and HD11 (25), were kindly provided by Dr. Narayan C. Rath and Dr. Hyun Lillehoj of USDA-ARS and maintained in RPMI 1640 containing 10% heat-inactivated FBS, 100 U/ml penicillin, and 100 μg/ml streptomycin and subcultured every 3-4 days. After overnight seeding at 1.5×10^6 cells/well in 6-well cell culture plates, cells were treated with different concentrations of each compound for 24 h or with the indicated concentration of each compound for various lengths of time for dose-response and time-course experiments, respectively. To study the synergy between HMTi/DNMTi and HDACi, different concentrations of an HMTi or DNMTi were added to the cells in the presence or absence of an HDACi for 24 h, followed by RNA isolation and HDP gene expression analysis as described below. HTC cells were also stimulated with butyrate, BIX01294, or their combination for 24 h, followed by 3-h stimulation with 10 ng/ml LPS and subsequent expression analysis.
(§2) Total RNA extraction and gene expression analysis. Total RNA was extracted using RNAzol (Molecular Biology Research Center, Cincinnati, OH) according to the manufacturer's protocol. Gene expression was performed using reverse transcription-quantitative PCR (RT-qPCR) as previously described (27-29). Reverse transcription was performed with 300 ng of total RNA and Maxima® First Strand cDNA Synthesis Kit (ThermoFisher Scientific, Pittsburgh, PA). The cDNA was then diluted 10-fold with RNase-free water prior to real-time PCR using QuantiTect SYBR® Green PCR Kit (Qiagen, Valencia, CA) in 10-μl reactions using primers specific for HDP, barrier function, and inflammatory cytokine genes as described (27, 29, 30). PCR was run in CFX Connect Real-Time PCR System (Bio-Rad, Hercules, CA) using the following program: 95° C. for 10 min, followed by 40 cycles of 94° C. for 15 sec, 55° C. for 20 sec, and 72° C. for 30 sec. The specificity of PCR reactions was confirmed by the melting curve analysis. The glyceraldehyde-3-phosphate dehydrogenase (GAPDH) gene was used as the reference for data normalization. The fold changes in gene expression in the cells treated with individual compounds or in combinations were calculated relative to the cells treated with an equal volume of RPMI 1640 or DMSO using the ΔΔCt method (31).

IL-8 = assay: RT-qPCR of IL-8 in HTC cells with or without LPS
Procedure: as §1, §2

IL-1β = assay: RT-qPCR of IL-1β in HTC cells with or without LPS
Procedure: as §1, §2

Compound: COc1cc2nc(N3CCCN(C)CC3)nc(NC3CCN(Cc4ccccc4)CC3)c2cc1OC [BIX01294]
- impact of LPS on the AvBD9-inducing synergy with butyrate (AvBD9 mRNA expression; 5 μM BIX01294 + 2 mM butyrate 24 h, then 10 ng/ml LPS 3 h (FIG. 8, Panel C)): no impact
- additional increase in AvBD9 gene expression over BIX01294 alone, combination with mocetinostat (AvBD9 mRNA expression; 5 μM BIX01294 in combination with 2.5 μM mocetinostat, 24 h (FIG. 7, Panel A)): 23 fold
- additional increase in AvBD9 gene expression over BIX01294 alone, combination with butyrate (AvBD9 mRNA expression; 5 μM BIX01294 in combination with 2 mM butyrate, 24 h (FIG. 7, Panel A)): 26 fold
- additional increase in AvBD9 gene expression over BIX01294 alone, combination with vorinostat (AvBD9 mRNA expression; 5 μM BIX01294 in combination with vorinostat (SAHA), 24 h (FIG. 7, Panel A)): 69 fold
- additional increase in AvBD9 expression of the butyrate combination over compound alone (AvBD9 mRNA expression; 20 μM compound + 2 mM butyrate versus 20 μM compound alone): 54 fold
- increase in AvBD9 mRNA expression (AvBD9 mRNA expression; 20 μM compound alone, 24 h (FIG. 2, Panel B), peak): 175 fold
- induction of AvBD9 expression (AvBD9 mRNA expression; 20 μM compound alone, 24 h (FIG. 4, Panels A, B)): 207 fold
- increase in AvBD9 expression, combination with butyrate (AvBD9 mRNA expression; 20 μM compound in combination with 2 mM butyrate, 24 h (FIG. 4, Panels A, B)): 11,165 fold
- synergy with butyrate in AvBD9 mRNA expression (AvBD9 mRNA expression; indicated concentrations in combination with 2 mM butyrate, 24 h (FIG. 4)): concentration-dependent increase
- synergy in AvBD9 induction with HDACi (AvBD9 mRNA expression; with any of three HDACi (vorinostat, butyrate, mocetinostat), 24 h (FIG. 7, Panel A)): dramatic synergy
- LPS-induced IL-8 expression level, combination with butyrate (IL-8; 5 μM BIX01294 + 2 mM butyrate 24 h, then 10 ng/ml LPS 3 h (FIG. 8, Panel E)): remained elevated
- IL-8 synthesis, combination with butyrate (IL-8; 5 μM BIX01294 + 2 mM butyrate, without LPS (FIG. 8, Panel E)): tended to have a synergistic effect
- effect on LPS-induced IL-8 expression (IL-8; compound alone 24 h, then 10 ng/ml LPS 3 h (FIG. 8, Panel E)): potentiated
- activity in inducing gene expression of IL-8 (IL-8; compound alone (2 mM butyrate or 5 μM BIX01294), without LPS (FIG. 8, Panel E)): no or weak activity
- effect on LPS-induced IL-1B expression, combination with butyrate (IL-1β; 5 μM BIX01294 + 2 mM butyrate 24 h, then 10 ng/ml LPS 3 h (FIG. 8, Panel D)): significant reduction
- IL-1β synthesis, combination with butyrate (IL-1β; 5 μM BIX01294 + 2 mM butyrate, without LPS (FIG. 8, Panel D)): tended to have a synergistic effect
- effect on LPS-induced IL-1β expression (IL-1β; compound alone 24 h, then 10 ng/ml LPS 3 h (FIG. 8, Panel D)): opposite effect
- activity in inducing gene expression of IL-1β (IL-1β; compound alone (2 mM butyrate or 5 μM BIX01294), without LPS (FIG. 8, Panel D)): no or weak activity
